# Results taken from publication PMC6257465, “Synthesis of N-(Methoxycarbonylthienylmethyl)thioureas and Evaluation of Their Interaction with Inducible and Neuronal Nitric Oxide Synthase” (Molecules, 2010).
# Biological target: T1, recombinant human iNOS (hiNOS) (Homo sapiens, UniProt P35228)
# T1 construct: gene NOS2; human iNOS cDNA in pEFIRES-P, overexpressed in HT1080 fibrosarcoma cells; post-mitochondrial supernatant, arginine removed with Dowex-50W; homodimer
# Test: L-[U-14C]-arginine to L-[U-14C]-citrulline conversion assay
# Type: biochemical
# Conditions: 100 µM, test compound added simultaneously with L-[U-14C]-arginine
# Description: L-[U-14C]-arginine to L-[U-14C]-citrulline conversion assay on recombinant human iNOS (hiNOS)
# T1 sequence (P35228 whole entry): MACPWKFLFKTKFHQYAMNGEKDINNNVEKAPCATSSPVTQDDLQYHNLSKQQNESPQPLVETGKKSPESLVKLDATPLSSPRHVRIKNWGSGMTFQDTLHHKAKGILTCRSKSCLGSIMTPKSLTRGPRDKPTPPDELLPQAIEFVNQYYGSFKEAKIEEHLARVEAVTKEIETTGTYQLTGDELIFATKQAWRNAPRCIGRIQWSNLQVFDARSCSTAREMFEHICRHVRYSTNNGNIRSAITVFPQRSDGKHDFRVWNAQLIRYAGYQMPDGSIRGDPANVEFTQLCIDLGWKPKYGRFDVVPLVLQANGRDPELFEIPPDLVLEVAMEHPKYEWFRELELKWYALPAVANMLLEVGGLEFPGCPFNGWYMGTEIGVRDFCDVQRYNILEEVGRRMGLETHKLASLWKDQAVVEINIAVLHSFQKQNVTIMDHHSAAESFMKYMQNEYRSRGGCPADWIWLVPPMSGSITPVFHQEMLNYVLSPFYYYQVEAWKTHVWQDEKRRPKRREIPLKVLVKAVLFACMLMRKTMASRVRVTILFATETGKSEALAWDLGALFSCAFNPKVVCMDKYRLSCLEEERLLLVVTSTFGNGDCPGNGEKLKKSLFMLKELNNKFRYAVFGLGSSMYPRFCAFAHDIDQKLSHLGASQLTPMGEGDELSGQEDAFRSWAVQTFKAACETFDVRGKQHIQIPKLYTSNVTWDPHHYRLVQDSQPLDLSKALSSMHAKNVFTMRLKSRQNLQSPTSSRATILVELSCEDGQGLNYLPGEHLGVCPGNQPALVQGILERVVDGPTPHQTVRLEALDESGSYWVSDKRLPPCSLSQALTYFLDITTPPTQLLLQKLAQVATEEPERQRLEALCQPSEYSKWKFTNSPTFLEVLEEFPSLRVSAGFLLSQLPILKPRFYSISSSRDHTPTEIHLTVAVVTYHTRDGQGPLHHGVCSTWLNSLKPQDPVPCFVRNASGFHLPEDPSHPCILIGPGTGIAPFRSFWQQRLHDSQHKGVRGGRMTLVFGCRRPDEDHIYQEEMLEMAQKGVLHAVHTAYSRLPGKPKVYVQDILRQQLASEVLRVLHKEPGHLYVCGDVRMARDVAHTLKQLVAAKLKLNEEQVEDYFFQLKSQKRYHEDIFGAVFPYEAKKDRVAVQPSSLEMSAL
compound,measurement,value
"COC(=O)c1ccc(CNC(N)=S)s1 [compound 13, Methyl 5-(thioureidomethyl)thiophene-2-carboxylate]",% Stimulation of hiNOS activity ^a / t = 0 min ^b,+62 ± 2%
"COC(=O)c1cc(CNC(N)=S)cs1 [compound 25, Methyl 4-(thioureidomethyl)thiophene-2-carboxylate]",% Stimulation of hiNOS activity ^a / t = 0 min ^b,+37 ± 27%
